Source: US20240158392A1 (Janssen Biotech, Inc., priority 2021, published 2024)

Legend:
SIK2 [1] = biological target: T1, SIK2 (Homo sapiens, UniProt Q9H0K1); assay: SIK2 Enzymatic Assay Version 1 (ADP Glo); assay type: biochemical; details: enzyme 0.6 nM, 160 μM ATP and 140 μM HDAC5tide (each 2× final concentration); 30 minutes pre-incubation, 4 hours; ADPGlo luminescence; read-out: SIK2 ADP Glo IC50 (μM) (Test Example 1)
In short: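 Kinase activity read as ADP production by ADP-Glo luminescence, all steps at room temperature. Compound and SIK2 (0.6 nM, a 2× concentration) were preincubated 30 min; ATP-only wells lacking peptide were the negative control; depletion 40 min, detection ≥30 min.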

SIK2 [2] = biological target: T1, SIK2; assay: SIK2 Enzymatic Assay High Version 2 (High ATP); assay type: biochemical
In short: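 At room temperature, enzyme (6 nM, 2× final) was preincubated with compound for 30 min, then 6 mM ATP and 400 μM HDAC5tide (both 2× final) were added for 2 h. ADP formed was measured by ADP-Glo Max (2 h reagent, 1 h detection) using luminescence.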

T1 sequence (Q9H0K1 whole entry, species assumed): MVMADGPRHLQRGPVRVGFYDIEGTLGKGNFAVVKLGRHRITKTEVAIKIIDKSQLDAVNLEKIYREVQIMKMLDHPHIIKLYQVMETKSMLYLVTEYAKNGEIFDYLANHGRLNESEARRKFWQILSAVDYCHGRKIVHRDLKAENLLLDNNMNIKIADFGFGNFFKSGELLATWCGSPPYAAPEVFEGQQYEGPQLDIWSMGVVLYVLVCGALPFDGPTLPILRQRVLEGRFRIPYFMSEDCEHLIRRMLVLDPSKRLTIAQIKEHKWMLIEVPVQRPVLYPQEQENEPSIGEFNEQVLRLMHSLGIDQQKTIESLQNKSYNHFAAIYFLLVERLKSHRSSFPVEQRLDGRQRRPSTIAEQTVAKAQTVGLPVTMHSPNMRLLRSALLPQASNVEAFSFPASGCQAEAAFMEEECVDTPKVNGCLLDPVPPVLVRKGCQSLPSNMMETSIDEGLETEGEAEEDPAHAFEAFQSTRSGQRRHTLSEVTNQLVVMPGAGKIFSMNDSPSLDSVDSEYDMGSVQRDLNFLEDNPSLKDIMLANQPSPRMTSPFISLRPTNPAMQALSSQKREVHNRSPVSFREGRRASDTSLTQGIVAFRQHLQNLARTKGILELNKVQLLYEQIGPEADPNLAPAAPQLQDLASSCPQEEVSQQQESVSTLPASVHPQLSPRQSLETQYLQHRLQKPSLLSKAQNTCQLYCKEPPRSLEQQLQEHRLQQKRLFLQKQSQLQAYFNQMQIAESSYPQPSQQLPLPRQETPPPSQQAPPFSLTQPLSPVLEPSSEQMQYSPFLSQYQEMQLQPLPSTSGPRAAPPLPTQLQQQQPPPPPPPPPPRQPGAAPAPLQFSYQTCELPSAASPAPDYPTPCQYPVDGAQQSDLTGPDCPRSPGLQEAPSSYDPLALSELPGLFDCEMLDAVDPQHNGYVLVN

| IC50 (SIK2 [1]) | IC50 (SIK2 [2]) | SMILES |
| --- | --- | --- |
| 0.000151 µM | < 0.838 nM | Cc1cc(Nc2cc3cc(-c4cc(OC(C)C)ncc4OCC(C)(C)C#N)ccn3n2)nc(C)n1 [Example 663, 3-[[4-[2-[(2,6-dimethylpyrimidin-4-yl)amino]pyrazolo[1,5-a]pyridin-5-yl]-6-isopropoxy-3-pyridyl]oxy]-2,2-dimethyl-propanenitrile] |
| 0.00308 µM | 52.1 nM | Cc1cc(-c2ccn3nc(NC(=O)C4CC4)cc3c2)c(O[C@H]2CC[C@@H](O)C2)cn1 (single isomer, unassigned) [Example 179, cis-N-(5-(5-(((1*S,3*R)-3-hydroxycyclopentyl)oxy)-2-methylpyridin-4-yl)pyrazolo[1,5-a]pyridin-2-yl)cyclopropanecarboxamide] |
| 0.00594 µM | 145 nM | N#Cc1cc(-c2ccn3nc(NC(=O)C4CC4)cc3c2)c(O[C@@H]2C[C@H]3C[C@@H]2CN3)cn1 [Example 24, N-[5-[5-[[(1R,4R,5R)-2-azabicyclo[2.2.1]heptan-5-yl]oxy]-2-cyano-4-pyridyl]pyrazolo[1,5-a]pyridin-2-yl]cyclopropanecarboxamide] |
| 0.000393 µM | 2.27 nM | N#CCN1CC[C@@H](Oc2cnc(C#N)cc2-c2ccn3nc(NC(=O)C4CC4)cc3c2)C1 [Example 113, (R)—N-[5-[2-cyano-5-[(3R)-1-(cyanomethyl)pyrrolidin-3-yl]oxy-4-pyridyl]pyrazolo[1,5-a]pyridin-2-yl]cyclopropanecarboxamide] |
| 0.000366 µM | < 0.838 nM | CC#Cc1cc(-c2ccn3nc(NC(=O)C4CC4)cc3c2)c(O[C@H]2CC[C@H](O)CC2)cn1 [Example 185, trans-N-[5-[5-(4-hydroxycyclohexoxy)-2-prop-1-ynyl-4-pyridyl]pyrazolo[1,5-a]pyridin-2-yl]cyclopropanecarboxamide] |
| 0.000605 µM | 12.9 nM | N#Cc1cc(-c2ccn3nc(NC(=O)C4CC4)cc3c2)c(OCC2CCC(O)(C(F)(F)F)CC2)cn1 (racemic) [Example 178, rac-N-[5-[2-cyano-5-[[4-hydroxy-4-(trifluoromethyl)cyclohexyl]methoxy]-4-pyridyl]pyrazolo[1,5-a]pyridin-2-yl]cyclopropanecarboxamide] |
| 0.0154 µM | 278 nM | CC(C)(O)CNc1cnc(C#N)cc1-c1ccn2nc(NC(=O)C3CC3)cc2c1 [Example 81, N-[5-[2-cyano-5-[(2-hydroxy-2-methyl-propyl)amino]-4-pyridyl]pyrazolo[1,5-a]pyridin-2-yl]cyclopropanecarboxamide] |
| 0.000631 µM | 8.63 nM | N#Cc1cc(-c2ccn3nc(NC(=O)C4CC4)cc3c2)c(OC[C@@H]2C[C@H]3CC[C@@H](C2)N3)cn1 [Example 67, N-[5-[5-[[(1S,5R)-8-azabicyclo[3.2.1]octan-3-yl]methoxy]-2-cyano-4-pyridyl]pyrazolo[1,5-a]pyridin-2-yl]cyclopropanecarboxamide] |
| 0.0039 µM | 74 nM | CN1CC[C@@H](COc2cnc(C#N)cc2-c2ccn3nc(Nc4cccnc4)cc3c2)C1 [Example 4, (R)-5-((1-methylpyrrolidin-3-yl)methoxy)-4-(2-(pyridin-3-ylamino)pyrazolo[1,5-a]pyridin-5-yl)picolinonitrile] |
| 0.000657 µM | 8.28 nM | Cc1cc(-c2ccn3nc(Nc4ccn(C)n4)cc3c2)c(OC[C@@H]2CNCCO2)cn1 [Example 129, 5-[2-methyl-5-[[(2S)-morpholin-2-yl]methoxy]-4-pyridyl]-N-(1-methylpyrazol-3-yl)pyrazolo[1,5-a]pyridin-2-amine] |
| 0.00212 µM | 36.4 nM | Cc1cc(-c2ccn3nc(NC(=O)C4CC4)cc3c2)c(OCC2(N)COC2)cn1 [Example 144, N-[5-[5-[(3-aminooxetan-3-yl)methoxy]-2-methyl-4-pyridyl]pyrazolo[1,5-a]pyridin-2-yl]cyclopropanecarboxamide] |
| 0.00362 µM | 34.5 nM | N#Cc1ccc(OC[C@@H]2CNCCO2)c(-c2ccn3nc(NC(=O)C4CC4)cc3c2)c1 [Example 103, N-[5-[5-cyano-2-[[(2S)-morpholin-2-yl]methoxy]phenyl]pyrazolo[1,5-a]pyridin-2-yl]cyclopropanecarboxamide] |
| 0.00201 µM | 34.9 nM | Cc1cc(-c2ccn3nc(NC(=O)C4CC4)cc3c2)c(O[C@H]2CC[C@H](O)C2)cn1 (stereo in doubt) [Example 183, trans-N-(5-(5-(((1*S,3*S)-3-hydroxycyclopentyl)oxy)-2-methylpyridin-4-yl)pyrazolo[1,5-a]pyridin-2-yl)cyclopropanecarboxamide] |
| 0.00386 µM | 55.6 nM | N#Cc1ccc(OC[C@@H]2CCNC2)c(-c2ccn3nc(NC(=O)C4CC4)cc3c2)c1 [Example 476, N-[5-[5-cyano-2-[[(3R)-pyrrolidin-3-yl]methoxy]phenyl]pyrazolo[1,5-a]pyridin-2-yl]cyclopropanecarboxamide] |
| 0.0103 µM | 264 nM | CC(=O)N1CCC(Oc2cnc(C#N)cc2-c2ccn3nc(NC(=O)C4CC4)cc3c2)C1 (single isomer, unassigned) [Example 57, (*S)—N-(5-(5-((1-Acetylpyrrolidin-3-yl)oxy)-2-cyanopyridin-4-yl)pyrazolo[1,5-a]pyridin-2-yl)cyclopropanecarboxamide] |
| 0.00492 µM | 98.6 nM | CC(=O)N1CCC(COc2cnc(C#N)cc2-c2ccn3nc(NC(=O)C4CC4)cc3c2)CC1 [Example 60, N-[5-[5-[(1-acetyl-4-piperidyl)methoxy]-2-cyano-4-pyridyl]pyrazolo[1,5-a]pyridin-2-yl]cyclopropanecarboxamide] |
| 0.00226 µM | 59.1 nM | CN1CC[C@@H](COc2cnc(C#N)cc2-c2ccn3nc(NC(=O)C4CC4)cc3c2)C1 [Example 1, N-[5-[2-Cyano-5-[[(3R)-1-methylpyrrolidin-3-yl]methoxy]-4-pyridyl]pyrazolo[1,5-a]pyridin-2-yl]cyclopropanecarboxamide] |
| 0.00148 µM | 16.9 nM | N#Cc1cc(-c2ccn3nc(NC(=O)C4CC4)cc3c2)c(OC[C@@H]2CCCNC2)cn1 [Example 585, N-[5-[2-cyano-5-[[(3R)-3-piperidyl]methoxy]-4-pyridyl]pyrazolo[1,5-a]pyridin-2-yl]cyclopropanecarboxamide] |

| SMILES | IC50 (SIK2 [1]) | IC50 (SIK2 [2]) |
| --- | --- | --- |
| Cc1cc(-c2ccn3nc(NC(=O)C4CC4)cc3c2)c(OC[C@H](N)C(C)(C)C)cn1 [Example 150, N-[5-[5-[(2R)-2-amino-3,3-dimethyl-butoxy]-2-methyl-4-pyridyl]pyrazolo[1,5-a]pyridin-2-yl]cyclopropanecarboxamide] | 0.00644 µM | 322 nM |
